Test results from patent publication US10696677B2 (Research Triangle Institute, priority 2016, dated 2020).
Where two headings read alike, the source gives them in different places.

What was measured:
[1] = biological target: T1, hCB1 (Homo sapiens, UniProt P21554); assay: functional fluorescent CB1 activated Gαq16-coupled intracellular calcium mobilization assay in CHO-K1 cells; format: cell-based; parameters: expressed in transfected cells; host or cells: CHO-K1 (membranes); details: average of 3-6 measurements, read-out: Apparent antagonist dissociation constant (Ke) at hCB1
[2] = biological target: T1, hCB1; assay: radioligand displacement binding at CB1 (membranes of CHO-K1 cells over-expressing receptor)
Method: (§1) All compounds were characterized by H^1 NMR and evaluated using a calcium mobilization assay. […] Further characterization of select compounds was performed using radioligand displacement of [3H]1 and equilibrium dissociation constant (Ki) values were determined.

[3] = tested on: MDCK; assay: MDCK BBB Assay; format: in vitro ADME; details: for % Permeable: MDCK BBB assay
[4] = biological target: hCB2 (Homo sapiens, UniProt P34972); assay: radioligand displacement binding at CB2 ([3H]CP55940, membranes of CHO-K1 cells over-expressing receptor)
Method: as §1

[5] = read-out: Binding affinity (Ki) at hCB1, radioligand displacement, CHO-K1 membranes, average of 3-6 measurements
[6] = read-out: Binding affinity (Ki) at hCB2, displacement of [3H]CP55940, CHO-K1 membranes, average of 3-6 measurements

hCB2, sequence (P34972 whole entry): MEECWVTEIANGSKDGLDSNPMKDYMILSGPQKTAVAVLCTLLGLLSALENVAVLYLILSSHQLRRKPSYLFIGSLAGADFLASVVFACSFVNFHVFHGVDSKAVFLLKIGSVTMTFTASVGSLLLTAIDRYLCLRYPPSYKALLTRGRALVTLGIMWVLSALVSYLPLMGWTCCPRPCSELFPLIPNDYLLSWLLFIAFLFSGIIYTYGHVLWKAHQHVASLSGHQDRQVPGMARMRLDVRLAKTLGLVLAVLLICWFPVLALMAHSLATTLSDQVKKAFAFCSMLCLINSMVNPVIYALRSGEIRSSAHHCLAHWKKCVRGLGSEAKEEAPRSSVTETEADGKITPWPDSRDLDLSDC
T1 sequence (P21554 whole entry): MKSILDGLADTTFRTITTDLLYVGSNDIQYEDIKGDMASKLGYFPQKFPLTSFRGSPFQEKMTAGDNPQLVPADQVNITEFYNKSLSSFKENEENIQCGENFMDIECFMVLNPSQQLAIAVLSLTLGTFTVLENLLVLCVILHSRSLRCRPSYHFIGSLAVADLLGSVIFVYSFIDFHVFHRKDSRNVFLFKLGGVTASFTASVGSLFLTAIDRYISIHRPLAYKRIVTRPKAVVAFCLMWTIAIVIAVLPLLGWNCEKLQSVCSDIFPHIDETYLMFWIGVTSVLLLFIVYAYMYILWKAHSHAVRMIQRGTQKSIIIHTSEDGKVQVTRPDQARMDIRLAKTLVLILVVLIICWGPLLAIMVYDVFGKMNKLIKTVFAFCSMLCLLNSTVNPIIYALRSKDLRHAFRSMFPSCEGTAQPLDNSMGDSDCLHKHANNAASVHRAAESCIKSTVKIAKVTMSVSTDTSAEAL

Row | Compound | Kb [1] [nM] | Ki [2, 5] [nM] | % Permeable [3] [%] | Ki [4, 6] [nM] | melting point [°C] | other results
1 | N=C(Nc1ccc(F)cc1)NC1CCN(c2ncnc3c2nc(-c2ccccc2Cl)n3-c2ccc(Cl)cc2)CC1 [Compound 27, 1-{1-[8-(2-chlorophenyl)-9-(4-chlorophenyl)-9H-purin-6-yl]piperidin-4-yl}-3-(4-fluorophenyl)guanidine] | 600 |  |  |  |  | 
2 | O/N=C(/c1ccc(F)cc1)C1CCN(c2ncnc3c2nc(-c2ccccc2Cl)n3-c2ccc(Cl)cc2)CC1 [Compound 29, (E)-{1-[8-(2-chlorophenyl)-9-(4-chlorophenyl)-9H-purin-6-yl]piperidin-4-yl}(4-fluorophenyl)methanone oxime] | 21 |  |  |  |  | Ki [2]: 4 nM
3 | Clc1ccc(-n2c(-c3ccccc3Cl)nc3c(N4CCC(c5nc6ccccc6[nH]5)CC4)ncnc32)cc1 [Compound 30, 6-[4-(1H-benzimidazol-2-yl)piperidin-1-yl]-8-(2-chlorophenyl)-9-(4-chlorophenyl)-9H-purine] | 12 | 47 |  |  |  | 
4 | Clc1ccc(-n2c(-c3ccccc3Cl)nc3c(N4CCC(Nc5ccccc5)CC4)ncnc32)cc1 [Compound 31, 1-[8-(2-chlorophenyl)-9-(4-chlorophenyl)-9H-purin-6-yl]-N-phenylpiperidin-4-amine] | 1.4 |  | 0 |  |  | MDCK BBB Assay (Basolateral/Apical Peak Area Ratio) Mean ([3]; MDCK cells): 0
5 | Clc1ccc(-n2c(-c3ccccc3Cl)nc3c(N4CCC(Nc5ccncc5)CC4)ncnc32)cc1 [Compound 36, N-{1-[8-(2-chlorophenyl)-9-(4-chlorophenyl)-9H-purin-6-yl]piperidin-4-yl}pyridin-4-amine] | 100 |  |  |  |  | 
6 | Clc1ccc(-n2c(-c3ccccc3Cl)nc3c(N4CCC(NCc5ccccc5)CC4)ncnc32)cc1 [Compound 37, N-benzyl-1-[8-(2-chlorophenyl)-9-(4-chlorophenyl)-9H-purin-6-yl]piperidin-4-amine] | 59 |  |  |  |  | 
7 | Clc1ccc(-n2c(-c3ccccc3Cl)nc3c(N4CCC(NCc5ccncc5)CC4)ncnc32)cc1 [Compound 38, 1-[8-(2-chlorophenyl)-9-(4-chlorophenyl)-9H-purin-6-yl]-N-(pyridin-4-ylmethyl)piperidin-4-amine] | 360 |  |  |  |  | 
8 | Fc1ccc(CNC2CCN(c3ncnc4c3nc(-c3ccccc3Cl)n4-c3ccc(Cl)cc3)CC2)cc1 [Compound 40, 1-[8-(2-chlorophenyl)-9-(4-chlorophenyl)-9H-purin-6-yl]-N-(4-fluorobenzyl)piperidin-4-amine] | 82 |  |  |  |  | 
9 | CN(Cc1ccc(F)cc1)C1CCN(c2ncnc3c2nc(-c2ccccc2Cl)n3-c2ccc(Cl)cc2)CC1 [Compound 41, 1-[8-(2-chlorophenyl)-9-(4-chlorophenyl)-9H-purin-6-yl]-N-(4-fluorobenzyl)-N-methylpiperidin-4-amine] | 185 |  |  |  |  | 
10 | O=C(Nc1ccc(F)c(F)c1)N1CCN(c2ncnc3c2nc(-c2ccccc2Cl)n3-c2ccc(Cl)cc2)CC1 [Compound 42, 4-[8-(2-Chlorophenyl)-9-(4-chlorophenyl)-9H-purin-6-yl]-N-(3,4-difluorophenyl)piperazine-1-carboxamide] |  |  | 0 | 4200 | 205 to 207 | 
11 | O=C(Nc1ccc(F)cc1)N1CCN(c2ncnc3c2nc(-c2ccccc2Cl)n3-c2ccc(Cl)cc2)CC1 [Compound 43, 4-[8-(2-Chlorophenyl)-9-(4-chlorophenyl)-9H-purin-6-yl]-N-(4-fluorophenyl)piperazine-1-carboxamide] |  | 19 |  | 2000 | 234 to 235 | 
12 | Clc1ccc(-n2c(-c3sccc3Cl)nc3c(N4CCN(Cc5ccccc5Cl)CC4)ncnc32)cc1 [Compound 52, 6-[4-(2-chlorobenzyl)piperazin-1-yl]-9-(4-chlorophenyl)-8-(3-chlorothiophen-2-yl)-9H-purine] | 220 |  |  |  |  | 
13 | Cc1noc(C)c1-c1nc2c(N3CCN(Cc4ccccc4Cl)CC3)ncnc2n1-c1ccc(Cl)cc1 [Compound 53, 6-[4-(2-chlorobenzyl)piperazin-1-yl]-9-(4-chlorophenyl)-8-(3,5-dimethylisoxazol-4-yl)-9H-purine] | 110 |  |  |  |  | 
14 | O=C(Nc1ccccc1F)N1CCN(c2ncnc3c2nc(-c2ccccc2Cl)n3-c2ccc(Cl)cc2)CC1 [Compound 56, 4-[8-(2-Chlorophenyl)-9-(4-chlorophenyl)-9H-purin-6-yl]-N-(2-fluorophenyl)piperazine-1-carboxamide] |  | 6 |  | 1300 | 214 to 215 | 
15 | O=C(Nc1ccc(F)cc1F)N1CCN(c2ncnc3c2nc(-c2ccccc2Cl)n3-c2ccc(Cl)cc2)CC1 [Compound 57, 4-[8-(2-Chlorophenyl)-9-(4-chlorophenyl)-9H-purin-6-yl]-N-(2,4-difluorophenyl)piperazine-1-carboxamide] |  |  |  | 3200 | 220 to 221 | Ki [2]: 9 nM
16 | CCS(=O)(=O)N1CCN(c2ncnc3c2nc(-c2ccccc2Cl)n3-c2ccc(Cl)cc2)CC1 [Compound 78, 8-(2-Chlorophenyl)-9-(4-chlorophenyl)-6-[4-(ethylsulfonyl)piperazin-1-yl]-9H-purine] |  |  | 18 | 980 |  | Ki [2]: 2.7 nM
17 | CCCS(=O)(=O)N1CCN(c2ncnc3c2nc(-c2ccccc2Cl)n3-c2ccc(Cl)cc2)CC1 [Compound 79, 8-(2-Chlorophenyl)-9-(4-chlorophenyl)-6-[4-(propylsulfonyl)piperazin-1-yl]-9H-purine] |  | 1.2 | 6 | 848 |  | 
18 | O=S(=O)(C1CC1)N1CCN(c2ncnc3c2nc(-c2ccccc2Cl)n3-c2ccc(Cl)cc2)CC1 [Compound 84, 8-(2-Chlorophenyl)-9-(4-chlorophenyl)-6-[4-(cyclopropylsulfonyl)piperazin-1-yl]-9H-purine] |  |  | 4 | 2300 |  | Ki [2]: 5.3 nM
19 | CS(=O)(=O)N1CCN(c2ncnc3c2nc(-c2ccccc2Cl)n3-c2ccc(Cl)cc2)CC1 [Compound 86, 8-(2-Chlorophenyl)-9-(4-chlorophenyl)-6-[4-(methylsulfonyl)piperazin-1-yl]-9H-purine] |  |  | 14 |  |  | Ki [4]: 1650 nM; Ki [2]: 24.4 nM
20 | O=C(N1CCN(c2ncnc3c2nc(-c2ccccc2Cl)n3-c2ccc(Cl)cc2)CC1)C(F)(F)F [Compound 87, 8-(2-Chlorophenyl)-9-(4-chlorophenyl)-6-[4-(trifluoroacetyl)piperazin-1-yl]-9H-purine] |  | 1 | ~100 |  |  | Ki [4]: 134 nM
21 | CCCCC(=O)N1CCN(c2ncnc3c2nc(-c2ccccc2Cl)n3-c2ccc(Cl)cc2)CC1 [Compound 103, 8-(2-Chlorophenyl)-9-(4-chlorophenyl)-6-(4-pentanoylpiperazin-1-yl)-9H-purine] |  |  | 0 | 403 |  | Ki [2]: 5.5 nM
22 | FC(F)(F)Oc1ccccc1CN1CCN(c2ncnc3c2nc(-c2ccccc2Cl)n3-c2ccc(Cl)cc2)CC1 [Compound 112, 8-(2-Chlorophenyl)-9-(4-chlorophenyl)-6-{4-[2-(trifluoromethoxy)benzyl]piperazin-1-yl}-9H-purine] |  |  |  |  | 110 to 111 | Ki [4]: 76000 nM
23 | O=C(NC1CCCC1)N1CCN(c2ncnc3c2nc(-c2ccccc2Cl)n3-c2ccc(Cl)cc2)CC1 [Compound 117, 4-[8-(2-Chlorophenyl)-9-(4-chlorophenyl)-9H-purin-6-yl]-N-cyclopentylpiperazine-1-carboxamide] |  | 5 | 3 | 740 | 248 to 250 | 
24 | O=C(NC1(C(F)(F)F)CCCC1)N1CCN(c2ncnc3c2nc(-c2ccccc2Cl)n3-c2ccc(Cl)cc2)CC1 [Compound 118, 4-[8-(2-Chlorophenyl)-9-(4-chlorophenyl)-9H-purin-6-yl]-N-[1-(trifluoromethyl)cyclopentyl]piperazine-1-carboxamide] |  | 24 |  | 1300 | 202 to 204 | 
25 | O=C(NC1CCCCC1)N1CCN(c2ncnc3c2nc(-c2ccccc2Cl)n3-c2ccc(Cl)cc2)CC1 [Compound 119, 4-[8-(2-chlorophenyl)-9-(4-chlorophenyl)-9H-purin-6-yl]-N-cyclohexylpiperazine-1-carboxamide] |  | 1.4 |  | 620 | 228 to 229 | 
26 | O=C(NCC1CCCCC1)N1CCN(c2ncnc3c2nc(-c2ccccc2Cl)n3-c2ccc(Cl)cc2)CC1 [Compound 120, 4-[8-(2-chlorophenyl)-9-(4-chlorophenyl)-9H-purin-6-yl]-N-(cyclohexylmethyl)piperazine-1-carboxamide] |  | 43 |  | 740 | 105 to 107 | 
27 | O=C(Nc1ccccc1)N1CCN(c2ncnc3c2nc(-c2ccccc2Cl)n3-c2ccc(Cl)cc2)CC1 [Compound 121, 4-[8-(2-chlorophenyl)-9-(4-chlorophenyl)-9H-purin-6-yl]-N-phenylpiperazine-1-carboxamide] |  | 6 |  | 2400 | 121 to 123 | 
28 | O=C(Nc1ccccn1)N1CCN(c2ncnc3c2nc(-c2ccccc2Cl)n3-c2ccc(Cl)cc2)CC1 [Compound 122, 4-[8-(2-Chlorophenyl)-9-(4-chlorophenyl)-9H-purin-6-yl]-N-(pyridin-2-yl)piperazine-1-carboxamide] |  | 6 | 1 | 7100 | 120 to 122 | 
29 | Clc1ccc(-n2c(-c3ccccc3Cl)nc3c(N4CCN(c5nc6ccccc6[nH]5)CC4)ncnc32)cc1 [Compound 123, 6-[4-(1H-benzimidazol-2-yl)piperazin-1-yl]-8-(2-chlorophenyl)-9-(4-chlorophenyl)-9H-purine] | 53 |  |  |  |  | 
